In the experiment the target is T1, recombinant human GSK3β (Homo sapiens, UniProt P49841).
T1 construct: purchased Dundee University, UK
The experiment in a line: GSK3β Scintillation Proximity Assay (ATP competition). In kind it is biochemical. Conditions: ATP 1 μM; Km of ATP for GSK3β 20 μM; peptide substrate 1 μM. The protocol:
Determination of ATP Competition in Scintillation Proximity GSK3β Assay.
GSK3β Scintillation Proximity Assay.
The competition experiments were carried out in duplicate with 10 different concentrations of the inhibitors in clear-bottom microtiter plates (Wallac, Finland). A biotinylated peptide substrate, Biotin-Ala-Ala-Glu-Glu-Leu-Asp-Ser-Arg-Ala-Gly-Ser(PO3H2)-Pro-Gln-Leu (AstraZeneca, Lund), was added at a final concentration of 1 μM in an assay buffer containing 1 mU recombinant human GSK3β (Dundee University, UK), 12 mM morpholinepropanesulfonic acid (MOPS), pH 7.0, 0.3 mM EDTA, 0.01% β-mercaptorethanol, 0.004% Brij 35 (a […] detergent), 0.5% glycerol and 0.5 μg BSA/25 μl. The reaction was initiated by the addition of 0.04 μCi [γ-^33P]ATP (Amersham, UK) and unlabelled ATP at a final concentration of 1 μM and assay volume of 25 μl. After incubation for 20 minutes at room temperature, each reaction was terminated by the addition of 25 μl stop solution containing 5 mM EDTA, 50 μM ATP, 0.1% Triton X-100 and 0.25 mg streptavidin coated Scintillation Proximity Assay (SPA) beads (Amersham, UK). After 6 hours the radioactivity was determined in a liquid scintillation counter (1450 MicroBeta Trilux, Wallac). The inhibition curves were analysed by non-linear regression using GraphPad Prism, USA. […]

T1 sequence (P49841 whole entry): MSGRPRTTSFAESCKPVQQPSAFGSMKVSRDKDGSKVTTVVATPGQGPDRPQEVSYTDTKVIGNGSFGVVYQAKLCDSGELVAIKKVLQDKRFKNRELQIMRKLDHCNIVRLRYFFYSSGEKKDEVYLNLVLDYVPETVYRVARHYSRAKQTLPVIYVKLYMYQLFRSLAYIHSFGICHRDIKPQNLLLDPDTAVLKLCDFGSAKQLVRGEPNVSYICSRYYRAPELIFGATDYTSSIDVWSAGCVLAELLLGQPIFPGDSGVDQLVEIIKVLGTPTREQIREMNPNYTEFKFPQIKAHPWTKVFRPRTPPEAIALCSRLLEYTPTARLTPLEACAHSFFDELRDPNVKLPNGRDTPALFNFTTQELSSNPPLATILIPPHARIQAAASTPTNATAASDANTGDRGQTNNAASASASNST

In the case of `N#Cc1ccc2[nH]c(O)c(-c3ccc(C(=O)O)cn3)c2c1` [compound of formula (I), 6-(5-cyano-2-hydroxy-1H-indol-3-yl)pyridine-3-carboxylic acid], the Ki was 32 nM.

The values are drawn from patent US20120101132A1, “New Substituted Oxindole Derivative” (priority 2008, published 2012).
